One assay addresses T1, Cytochrome P450 1A2 (Homo sapiens, UniProt P05177).
T1 sequence (P05177 whole entry): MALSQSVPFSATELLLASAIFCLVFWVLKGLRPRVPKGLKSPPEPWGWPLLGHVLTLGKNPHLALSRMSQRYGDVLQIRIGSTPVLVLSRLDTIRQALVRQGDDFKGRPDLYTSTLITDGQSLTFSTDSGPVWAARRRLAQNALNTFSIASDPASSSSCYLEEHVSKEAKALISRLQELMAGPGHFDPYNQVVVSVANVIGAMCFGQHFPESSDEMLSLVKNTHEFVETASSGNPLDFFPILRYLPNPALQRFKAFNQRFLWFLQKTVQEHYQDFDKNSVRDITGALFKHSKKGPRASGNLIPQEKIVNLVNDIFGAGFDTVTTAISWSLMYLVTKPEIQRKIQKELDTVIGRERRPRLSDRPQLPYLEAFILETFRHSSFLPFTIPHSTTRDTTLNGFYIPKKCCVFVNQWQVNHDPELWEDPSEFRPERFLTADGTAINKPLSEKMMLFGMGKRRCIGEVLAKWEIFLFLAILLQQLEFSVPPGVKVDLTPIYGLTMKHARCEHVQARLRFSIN

For a further assay, the target named is Cytochrome P450 2C19 (Homo sapiens, UniProt P33261). The assay can be described thus: Cytochrome panel assay with activity outcomes. Panel member name: p450-cyp2c19 Compounds with AC50 equal or less than 10 uM are considered active. It is filed as functional. Conditions: read-out: AC50.
Sequence of Cytochrome P450 2C19 (P33261 whole entry): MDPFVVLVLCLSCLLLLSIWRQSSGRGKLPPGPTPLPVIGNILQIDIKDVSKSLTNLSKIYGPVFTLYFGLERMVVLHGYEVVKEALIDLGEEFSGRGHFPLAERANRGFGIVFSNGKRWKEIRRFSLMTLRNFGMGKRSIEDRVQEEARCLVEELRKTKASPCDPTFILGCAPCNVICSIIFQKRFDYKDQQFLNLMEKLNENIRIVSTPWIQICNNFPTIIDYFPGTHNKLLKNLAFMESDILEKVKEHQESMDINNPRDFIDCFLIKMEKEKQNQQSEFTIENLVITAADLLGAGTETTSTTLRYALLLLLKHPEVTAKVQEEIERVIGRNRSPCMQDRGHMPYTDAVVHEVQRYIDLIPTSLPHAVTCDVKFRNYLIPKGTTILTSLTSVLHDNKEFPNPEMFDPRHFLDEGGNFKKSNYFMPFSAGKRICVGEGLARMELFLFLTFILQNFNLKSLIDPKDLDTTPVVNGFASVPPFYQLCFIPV
The target in assay [1] is Protein-tyrosine kinase 2-beta (Homo sapiens, UniProt Q14289).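 Note: potency of inhibitors of PYK2 kinase phosphorylation of poly-GT substrate.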
Sequence of Protein-tyrosine kinase 2-beta (Q14289 whole entry): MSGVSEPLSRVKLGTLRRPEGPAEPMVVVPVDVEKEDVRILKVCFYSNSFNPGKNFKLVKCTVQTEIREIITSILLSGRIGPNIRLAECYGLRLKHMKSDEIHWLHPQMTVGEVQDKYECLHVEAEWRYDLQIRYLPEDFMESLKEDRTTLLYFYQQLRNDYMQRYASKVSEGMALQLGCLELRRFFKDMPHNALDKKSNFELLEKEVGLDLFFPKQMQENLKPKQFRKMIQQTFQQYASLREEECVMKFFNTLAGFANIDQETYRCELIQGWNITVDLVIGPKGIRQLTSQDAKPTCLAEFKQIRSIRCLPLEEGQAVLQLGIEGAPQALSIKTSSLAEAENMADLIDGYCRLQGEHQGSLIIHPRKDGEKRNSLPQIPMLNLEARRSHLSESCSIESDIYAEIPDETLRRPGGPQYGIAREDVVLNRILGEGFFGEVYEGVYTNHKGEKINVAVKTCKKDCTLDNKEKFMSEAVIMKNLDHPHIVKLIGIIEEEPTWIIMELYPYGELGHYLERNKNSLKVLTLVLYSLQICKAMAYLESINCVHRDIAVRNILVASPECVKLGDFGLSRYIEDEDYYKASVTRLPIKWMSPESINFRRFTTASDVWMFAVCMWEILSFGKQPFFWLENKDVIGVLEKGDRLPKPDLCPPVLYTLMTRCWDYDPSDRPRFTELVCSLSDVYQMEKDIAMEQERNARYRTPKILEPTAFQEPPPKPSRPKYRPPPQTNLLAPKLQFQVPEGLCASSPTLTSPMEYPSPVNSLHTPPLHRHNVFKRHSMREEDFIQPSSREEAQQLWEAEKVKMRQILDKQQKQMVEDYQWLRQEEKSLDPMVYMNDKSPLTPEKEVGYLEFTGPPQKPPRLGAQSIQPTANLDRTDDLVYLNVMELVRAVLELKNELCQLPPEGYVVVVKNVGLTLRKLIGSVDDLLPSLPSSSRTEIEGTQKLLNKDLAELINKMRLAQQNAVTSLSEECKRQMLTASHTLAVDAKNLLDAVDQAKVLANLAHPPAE
A further assay addresses Cytochrome P450 2C9 (Homo sapiens, UniProt P11712).
Assay [2] in a line: Luminescent dose response cell-based high throughput screening assay for inhibitors of the Janus kinase 2 mutant JAK2V617F. [Related pubchem assays: 1446 (Primary screen.), 1521 (Confirmation assay.), 1486 (Counter screen.)]. It is filed as functional.
In assay [3] the target is Bifunctional protein GlmU (Mycobacterium tuberculosis, UniProt P9WMN3). Briefly: Inhibitors of Mycobacterial Glucosamine-1-phosphate acetyl transferase (GlmU). Secondary screen. On the set-up: species or system Mycobacterium tuberculosis H37Rv.
Sequence of Bifunctional protein GlmU (P9WMN3 whole entry, the tested form may be a part): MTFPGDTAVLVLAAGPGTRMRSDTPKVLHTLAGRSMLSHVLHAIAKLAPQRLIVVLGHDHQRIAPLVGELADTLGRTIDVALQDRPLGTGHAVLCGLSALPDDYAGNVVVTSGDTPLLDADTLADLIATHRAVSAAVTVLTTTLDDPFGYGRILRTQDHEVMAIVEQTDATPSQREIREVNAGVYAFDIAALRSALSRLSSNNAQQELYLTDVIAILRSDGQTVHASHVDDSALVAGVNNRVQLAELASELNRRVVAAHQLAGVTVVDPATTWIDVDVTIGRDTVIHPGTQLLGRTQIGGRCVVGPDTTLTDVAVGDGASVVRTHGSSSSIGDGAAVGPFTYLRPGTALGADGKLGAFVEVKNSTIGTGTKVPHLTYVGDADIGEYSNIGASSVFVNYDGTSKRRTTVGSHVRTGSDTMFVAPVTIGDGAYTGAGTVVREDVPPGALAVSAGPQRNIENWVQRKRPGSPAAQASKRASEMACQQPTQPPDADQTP
Assay [4] concerns the target T2, Carboxy-terminal domain RNA polymerase II polypeptide A small phosphatase 1 (Homo sapiens, UniProt Q9GZU7).
T2 sequence (Q9GZU7 whole entry): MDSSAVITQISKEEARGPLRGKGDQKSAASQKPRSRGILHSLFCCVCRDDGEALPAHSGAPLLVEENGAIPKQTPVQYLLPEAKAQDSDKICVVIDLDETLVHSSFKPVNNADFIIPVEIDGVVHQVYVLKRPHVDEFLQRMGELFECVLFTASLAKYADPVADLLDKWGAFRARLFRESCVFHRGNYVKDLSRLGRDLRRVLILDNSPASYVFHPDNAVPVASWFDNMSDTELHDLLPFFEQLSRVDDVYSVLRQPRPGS
The assay can be described thus: CTDSP1 inhibitors, concentration-response, biochemical, absorbance readout, ultra-high-throughput screen actives (AID 540297). It is filed as functional.

Assay [5] addresses T3, Histone-lysine N-methyltransferase NSD2 (Homo sapiens, UniProt O96028).
T3 sequence (O96028 whole entry): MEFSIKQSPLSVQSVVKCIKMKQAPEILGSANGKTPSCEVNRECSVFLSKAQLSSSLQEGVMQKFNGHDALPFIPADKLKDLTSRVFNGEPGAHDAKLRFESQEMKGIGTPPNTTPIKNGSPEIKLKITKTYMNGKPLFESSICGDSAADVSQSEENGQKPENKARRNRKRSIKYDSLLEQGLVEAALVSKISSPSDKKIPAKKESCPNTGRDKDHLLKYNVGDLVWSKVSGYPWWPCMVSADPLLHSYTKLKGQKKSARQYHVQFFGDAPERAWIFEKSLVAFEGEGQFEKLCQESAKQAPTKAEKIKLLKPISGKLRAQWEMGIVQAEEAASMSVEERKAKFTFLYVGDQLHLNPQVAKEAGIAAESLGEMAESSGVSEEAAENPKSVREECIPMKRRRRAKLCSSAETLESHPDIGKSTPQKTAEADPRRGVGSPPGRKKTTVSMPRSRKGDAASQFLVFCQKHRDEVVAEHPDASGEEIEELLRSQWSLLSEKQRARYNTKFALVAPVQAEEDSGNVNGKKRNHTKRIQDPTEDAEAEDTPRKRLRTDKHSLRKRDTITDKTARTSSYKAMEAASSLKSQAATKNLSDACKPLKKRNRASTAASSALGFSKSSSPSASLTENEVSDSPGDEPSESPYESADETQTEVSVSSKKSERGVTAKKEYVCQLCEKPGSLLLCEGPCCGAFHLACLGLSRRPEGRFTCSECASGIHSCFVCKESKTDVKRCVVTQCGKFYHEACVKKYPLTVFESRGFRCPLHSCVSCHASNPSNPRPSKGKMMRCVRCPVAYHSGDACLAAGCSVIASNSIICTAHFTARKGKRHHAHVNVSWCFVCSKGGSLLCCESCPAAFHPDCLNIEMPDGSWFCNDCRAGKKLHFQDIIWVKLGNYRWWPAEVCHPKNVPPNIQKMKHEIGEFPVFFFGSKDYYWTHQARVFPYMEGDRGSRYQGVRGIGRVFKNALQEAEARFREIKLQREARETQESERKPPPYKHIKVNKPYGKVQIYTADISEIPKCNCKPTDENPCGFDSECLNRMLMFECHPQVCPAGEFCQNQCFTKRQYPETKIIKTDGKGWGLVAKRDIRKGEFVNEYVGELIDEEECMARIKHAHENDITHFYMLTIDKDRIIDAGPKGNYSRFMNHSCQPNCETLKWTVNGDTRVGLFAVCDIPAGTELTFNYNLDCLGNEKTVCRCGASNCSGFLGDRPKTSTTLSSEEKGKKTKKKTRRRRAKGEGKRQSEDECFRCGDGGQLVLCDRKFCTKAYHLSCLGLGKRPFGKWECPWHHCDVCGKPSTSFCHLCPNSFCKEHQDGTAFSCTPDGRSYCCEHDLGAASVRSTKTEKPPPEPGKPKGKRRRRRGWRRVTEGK
It is filed as biochemical.

Assay [6] has as its target DNA dC->dU-editing enzyme APOBEC-3A (Homo sapiens, UniProt P31941). Briefly: Dose Response confirmation of small molecule APOBEC3A DNA Deaminase Inhibitors via a fluorescence-based single-stranded DNA deaminase assay. [Related pubchem assays (depositor defined):AID493011, AID493024]. It is filed as functional.
The target of assay [7] is DNA dC->dU-editing enzyme APOBEC-3G (Homo sapiens, UniProt Q9HC16). The class given is functional.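 Note: Dose-response counterscreen measuring inhibition of APOBEC3G DNA deaminase activity, run while confirming APOBEC3A inhibitors.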
Sequence of DNA dC->dU-editing enzyme APOBEC-3G (Q9HC16 whole entry): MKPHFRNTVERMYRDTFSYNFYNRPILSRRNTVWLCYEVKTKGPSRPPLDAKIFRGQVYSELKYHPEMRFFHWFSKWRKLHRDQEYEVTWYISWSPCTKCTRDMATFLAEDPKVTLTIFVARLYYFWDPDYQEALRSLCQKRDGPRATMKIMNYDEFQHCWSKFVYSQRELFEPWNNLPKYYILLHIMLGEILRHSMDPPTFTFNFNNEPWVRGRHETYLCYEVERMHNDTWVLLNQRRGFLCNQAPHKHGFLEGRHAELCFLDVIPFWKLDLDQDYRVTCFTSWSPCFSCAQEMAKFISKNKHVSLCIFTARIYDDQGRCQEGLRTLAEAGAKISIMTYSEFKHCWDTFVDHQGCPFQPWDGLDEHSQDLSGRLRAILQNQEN
Assay [8] addresses T4, RNA-binding protein pos-1 (Caenorhabditis elegans, UniProt G5EF15).
T4 sequence (G5EF15 whole entry): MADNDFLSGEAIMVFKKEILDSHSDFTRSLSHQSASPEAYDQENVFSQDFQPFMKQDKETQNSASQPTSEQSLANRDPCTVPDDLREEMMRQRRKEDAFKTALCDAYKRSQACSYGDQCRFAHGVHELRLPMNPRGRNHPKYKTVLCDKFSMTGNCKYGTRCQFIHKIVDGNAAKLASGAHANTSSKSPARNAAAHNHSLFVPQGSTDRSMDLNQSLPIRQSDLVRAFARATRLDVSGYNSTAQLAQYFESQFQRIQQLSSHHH
Briefly: disruptors of C. elegans POS-1 RNA interaction – biochemical, fluorescence polarization, dose response (AID 1964).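 Note: purified POS-1 fused to maltose binding protein made in E. coli; potency of compounds blocking POS-1 binding to fluorescent RNA.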

Another assay has as its target T5, Leucine aminopeptidase (Plasmodium falciparum 3D7, UniProt Q8IL11).
T5 sequence (Q8IL11 whole entry): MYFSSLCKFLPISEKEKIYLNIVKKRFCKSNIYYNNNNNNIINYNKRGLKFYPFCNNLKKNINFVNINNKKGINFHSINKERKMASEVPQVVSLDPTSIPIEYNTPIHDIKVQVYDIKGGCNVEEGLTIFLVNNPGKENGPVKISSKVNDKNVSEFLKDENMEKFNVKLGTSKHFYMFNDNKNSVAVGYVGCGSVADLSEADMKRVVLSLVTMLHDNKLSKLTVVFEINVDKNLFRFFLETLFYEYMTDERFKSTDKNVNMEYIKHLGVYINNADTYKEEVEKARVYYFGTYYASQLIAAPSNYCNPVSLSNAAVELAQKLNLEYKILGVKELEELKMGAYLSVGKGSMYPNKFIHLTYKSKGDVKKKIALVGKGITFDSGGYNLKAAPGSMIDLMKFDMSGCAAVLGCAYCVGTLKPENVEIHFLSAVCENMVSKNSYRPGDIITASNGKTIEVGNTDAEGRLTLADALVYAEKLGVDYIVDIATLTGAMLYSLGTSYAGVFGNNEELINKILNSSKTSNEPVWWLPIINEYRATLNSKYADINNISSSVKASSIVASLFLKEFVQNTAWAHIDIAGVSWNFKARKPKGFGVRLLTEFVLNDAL
Briefly: P. falciparum M17LAP inhibitors, primary screen, biochemical, fluorogenic H-Leu-NHMec substrate, 1536-well (AID 1619). The class given is functional.

Active and inactive are the calls of the source. Where only a bound is given, the exact number is not on record here.

Among the data in ChEMBL document CHEMBL1201862, “PubChem BioAssay data set” (2004) are AC50, IC50 and EC50 values, retold here.

Sequence of Cytochrome P450 2C9 (P11712 whole entry): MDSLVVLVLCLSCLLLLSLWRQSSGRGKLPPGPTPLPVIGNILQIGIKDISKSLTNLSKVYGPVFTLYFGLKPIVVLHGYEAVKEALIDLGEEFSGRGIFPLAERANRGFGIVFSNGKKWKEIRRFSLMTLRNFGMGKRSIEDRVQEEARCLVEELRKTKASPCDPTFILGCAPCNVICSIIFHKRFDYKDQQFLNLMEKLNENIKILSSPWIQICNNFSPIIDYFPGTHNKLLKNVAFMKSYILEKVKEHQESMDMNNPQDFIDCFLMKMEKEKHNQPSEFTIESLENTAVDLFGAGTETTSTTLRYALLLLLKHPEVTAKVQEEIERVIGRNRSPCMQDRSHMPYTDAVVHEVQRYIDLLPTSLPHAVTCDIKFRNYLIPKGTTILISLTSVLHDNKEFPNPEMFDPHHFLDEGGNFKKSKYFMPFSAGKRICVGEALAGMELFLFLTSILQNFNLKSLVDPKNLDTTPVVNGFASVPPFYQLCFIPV
Sequence of DNA dC->dU-editing enzyme APOBEC-3A (P31941 whole entry): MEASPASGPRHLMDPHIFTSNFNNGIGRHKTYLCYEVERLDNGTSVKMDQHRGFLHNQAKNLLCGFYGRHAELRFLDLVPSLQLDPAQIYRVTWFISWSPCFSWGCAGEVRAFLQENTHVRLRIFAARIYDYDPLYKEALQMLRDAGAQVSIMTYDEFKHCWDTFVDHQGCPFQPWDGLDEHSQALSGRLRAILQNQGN

For the compound `N#Cc1ccccc1/C=N/Nc1nc(-c2ccccc2)c2cc(Cl)ccc2n1`, the results for the half-maximal activity concentration (AC50) at Cytochrome P450 1A2, on Cytochrome P450 2C19 and on Cytochrome P450 2C9 were 7.08 µM (inconclusive), 25.1 µM (inconclusive) and 2.24 µM (inconclusive), respectively. Moreover, the IC50 in assay [1] is > 69.5 µM (not active).

As to `COC(=O)COc1cccc2c(=O)n(CC(=O)NCc3ccc(F)cc3)ccc12`, the IC50 in [2] was 1.14 µM (active).

Consider `Cc1cc(/C=N/NC(=O)c2cccc(N(C)C)c2)c(C)n1-c1cc(C(=O)O)cc(C(=O)O)c1`, for which the 50% inhibitory concentration (IC50) in assay [3] is 166 µM (active); in assay [4], 2.07 µM (active); in [6] it was 9.31 µM (active); in assay [7], 20.6 µM (active). For the same compound, the AC50 in [5] is > 20 µM (inactive). In assay [8], the EC50 is > 300 µM (not active).

For `O=C(Nc1ccc(Oc2ccc(C(=O)O)c(C(=O)O)c2)cc1)c1cccs1`, the IC50 is 30.7 µM (active) on Leucine aminopeptidase and 97.3 µM (active) in assay [3].

Turning to `O=[N+]([O-])c1cccc(/C=C/c2nc3cc([N+](=O)[O-])ccc3[nH]2)c1`, in [1], the IC50 is recorded as 20 µM (not active).
